pIC50: −log10 of the molar value.

Consider ten compounds from US20260207578A1, “COMPOUND BASED ON SULFUR/OXYGEN SUBSTITUTED GLUTARIMIDE-BASED ISOINDOLINONE SKELETON AND USE THEREOF” (Gluetacs Therapeutics (Shanghai) Co., LTD., priority 2022, published 2026).

The test system of one test is THP-1. In words: Half inhibitory concentration (IC50) against tumor cells, Cell Counting Kit-8. The class given is cell-based. The following applies: Homo sapiens, CCK-8, 96 h treatment, read-out: inhibitory activity (IC50, nM) against tumor cells proliferation. As to the method: (§1) The tumor cells used herein were cultured in a cell culture medium listed in table A at 37° C. in an incubator with 5% CO2.
(§2) After the cells were treated with the compounds of the present disclosure for a period of time, the cell viability detection reagent was added to the culture medium for cell viability assessment according to the instructions provided with the CCK-8 kit. […] The growth inhibition of the compounds of the present disclosure on cells was plotted by Prism Graphpad software, and the IC50 values of the compounds of the present disclosure were calculated therefrom.

For test [1], the target named is T1, human Cereblon WT GST-tagged protein (Homo sapiens, UniProt Q96SW2).
T1 construct: purchased CISBIO 64BDCRBNPEH
T1 sequence (Q96SW2 whole entry): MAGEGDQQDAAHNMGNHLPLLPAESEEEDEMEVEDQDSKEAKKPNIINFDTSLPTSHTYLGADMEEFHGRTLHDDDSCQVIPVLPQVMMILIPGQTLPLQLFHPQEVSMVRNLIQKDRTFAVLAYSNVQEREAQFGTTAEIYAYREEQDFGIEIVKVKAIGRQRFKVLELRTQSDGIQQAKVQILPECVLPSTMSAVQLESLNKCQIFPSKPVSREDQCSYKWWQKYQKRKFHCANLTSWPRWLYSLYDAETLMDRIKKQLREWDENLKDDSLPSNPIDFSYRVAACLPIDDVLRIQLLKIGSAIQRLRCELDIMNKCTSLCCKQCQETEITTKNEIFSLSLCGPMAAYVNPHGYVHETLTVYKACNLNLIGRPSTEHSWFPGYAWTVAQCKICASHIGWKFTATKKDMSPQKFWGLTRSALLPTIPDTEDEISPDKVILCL
In words: CRBN-binding affinity, HTRF (CEREBLON BINDING kit). As to conditions: displacement of Thalidomide-Re reagent, 3 hours at room temperature. Summed up:
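Compounds displace a thalidomide-Re tracer from GST-tagged human Cereblon WT, detected with an Eu-labelled anti-GST antibody by time-resolved fluorescence. Signal at 620 nm was normalised against solvent and blank controls.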

For another test, the target named is T2, IKZF2 (Homo sapiens, UniProt Q96SW2+Q9UKS7).
T2 construct: endogenous in cells; host or cells: human PBMCs (Milecell Biotechnologies)
Briefly: Western-blot assay, substrate protein in hPBMCs. In kind it is cell-based. The following applies: hPBMC cells, 24 hours, tested at 50 nM and 500 nM, table does not say which. Summed up:
(§3)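 Thawed hPBMCs, 1×10^6 cells/mL; 24 h compound; RIPA + phosphatase inhibitor lysis, BCA-normalised loading, SDS-PAGE, NC transfer, immunodetection. Bands vs internal control → % remaining; DC50 = concentration at 50% of DMSO band intensity.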

The target in another test is T3, GSPT1 (Homo sapiens, UniProt P15170+Q96SW2).
T3 construct: endogenous in cells; host or cells: human PBMCs (Milecell Biotechnologies)
T3 sequence (P15170 whole entry): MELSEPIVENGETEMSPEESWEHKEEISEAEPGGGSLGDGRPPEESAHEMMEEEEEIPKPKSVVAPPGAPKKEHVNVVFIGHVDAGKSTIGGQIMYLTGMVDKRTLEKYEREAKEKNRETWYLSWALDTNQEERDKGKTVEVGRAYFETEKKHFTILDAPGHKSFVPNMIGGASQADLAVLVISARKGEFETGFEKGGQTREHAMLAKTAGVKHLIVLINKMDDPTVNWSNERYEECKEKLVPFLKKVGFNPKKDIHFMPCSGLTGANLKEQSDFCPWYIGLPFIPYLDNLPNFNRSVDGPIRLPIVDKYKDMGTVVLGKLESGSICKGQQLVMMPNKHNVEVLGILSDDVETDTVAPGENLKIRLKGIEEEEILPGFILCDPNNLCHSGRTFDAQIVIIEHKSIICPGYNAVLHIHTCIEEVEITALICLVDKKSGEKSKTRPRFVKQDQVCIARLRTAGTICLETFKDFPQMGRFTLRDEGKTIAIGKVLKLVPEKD
T3 sequence (Q96SW2 whole entry): as the sequence (Q96SW2 whole entry) above
T3 sequence (Q16531 whole entry partner): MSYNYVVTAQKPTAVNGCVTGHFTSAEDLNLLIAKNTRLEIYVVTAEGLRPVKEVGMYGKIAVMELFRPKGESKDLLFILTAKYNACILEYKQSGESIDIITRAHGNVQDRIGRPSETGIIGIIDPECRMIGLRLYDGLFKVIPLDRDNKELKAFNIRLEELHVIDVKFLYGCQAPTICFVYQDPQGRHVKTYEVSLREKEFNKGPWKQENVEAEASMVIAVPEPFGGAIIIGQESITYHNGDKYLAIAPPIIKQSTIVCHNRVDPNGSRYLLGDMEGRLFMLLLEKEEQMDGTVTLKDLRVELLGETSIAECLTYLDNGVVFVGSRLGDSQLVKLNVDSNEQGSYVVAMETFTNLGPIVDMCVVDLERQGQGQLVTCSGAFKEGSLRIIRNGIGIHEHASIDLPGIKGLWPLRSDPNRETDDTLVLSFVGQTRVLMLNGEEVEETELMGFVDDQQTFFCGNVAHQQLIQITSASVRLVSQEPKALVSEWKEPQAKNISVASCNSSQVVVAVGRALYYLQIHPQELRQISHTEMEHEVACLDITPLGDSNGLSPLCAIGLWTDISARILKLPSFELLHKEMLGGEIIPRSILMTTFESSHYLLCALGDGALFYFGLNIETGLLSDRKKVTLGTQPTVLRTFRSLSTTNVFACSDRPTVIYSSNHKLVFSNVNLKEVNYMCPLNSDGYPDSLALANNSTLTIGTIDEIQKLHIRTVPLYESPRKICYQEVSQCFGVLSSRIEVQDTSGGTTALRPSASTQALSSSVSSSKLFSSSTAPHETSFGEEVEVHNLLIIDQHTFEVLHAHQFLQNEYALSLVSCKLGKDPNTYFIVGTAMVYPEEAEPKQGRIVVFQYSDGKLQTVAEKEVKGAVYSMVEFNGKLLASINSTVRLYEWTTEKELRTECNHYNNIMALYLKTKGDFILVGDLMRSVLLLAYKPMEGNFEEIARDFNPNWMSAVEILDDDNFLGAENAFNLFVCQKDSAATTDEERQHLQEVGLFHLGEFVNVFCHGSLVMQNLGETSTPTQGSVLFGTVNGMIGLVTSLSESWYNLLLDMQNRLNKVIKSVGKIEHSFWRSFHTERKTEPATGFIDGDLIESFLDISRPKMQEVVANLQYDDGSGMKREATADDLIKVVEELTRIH
In words: Western-blot assay, substrate protein in hPBMCs. In kind it is cell-based. As to conditions: hPBMC cells, 24 hours, tested at 50 nM and 500 nM, table does not say which. Summed up:
as §3

Another test has as its system MM.1S. Briefly: Half inhibitory concentration (IC50) against tumor cells, Cell Counting Kit-8. The following applies: Homo sapiens, MM1.S, CCK-8, 96 h treatment, read-out: inhibitory activity (IC50, nM) against tumor cells proliferation. In kind it is cell-based. Here is the method: as §1, §2
In general terms: Tetrazolium dyes change colour on reduction, which living cells bring about.

For a further test, the target named is T4, IKZF1 (Homo sapiens, UniProt Q13422+Q96SW2).
T4 construct: endogenous in cells; host or cells: human PBMCs (Milecell Biotechnologies)
T4 sequence (Q13422 whole entry): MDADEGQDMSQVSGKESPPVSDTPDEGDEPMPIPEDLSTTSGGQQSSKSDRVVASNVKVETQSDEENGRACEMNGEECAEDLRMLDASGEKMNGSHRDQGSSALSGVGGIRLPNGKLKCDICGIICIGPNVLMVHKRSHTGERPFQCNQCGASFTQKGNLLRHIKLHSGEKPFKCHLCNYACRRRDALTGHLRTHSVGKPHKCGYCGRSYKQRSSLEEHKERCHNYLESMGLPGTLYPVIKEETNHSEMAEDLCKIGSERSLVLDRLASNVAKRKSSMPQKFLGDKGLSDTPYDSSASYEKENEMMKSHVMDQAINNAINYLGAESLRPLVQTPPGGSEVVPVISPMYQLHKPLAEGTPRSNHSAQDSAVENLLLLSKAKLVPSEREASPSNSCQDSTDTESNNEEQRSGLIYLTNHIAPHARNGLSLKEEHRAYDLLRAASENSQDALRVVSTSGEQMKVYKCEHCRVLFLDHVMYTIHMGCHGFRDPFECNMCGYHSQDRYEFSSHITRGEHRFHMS
T4 sequence (Q96SW2 whole entry): as the sequence (Q96SW2 whole entry) above
T4 sequence (Q16531 whole entry partner): as the sequence (Q16531 whole entry partner) above
In words: Western-blot assay, substrate protein in hPBMCs. The class given is cell-based. As to conditions: hPBMC cells, 24 hours, tested at 50 nM and 500 nM, table does not say which. Summed up:
(§4)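 hPBMCs (1×10^6 cells/mL) exposed 24 h to compound at 50 nM and 500 nM, lysed, and probed by Western blot. Band grayscale normalized to internal control gives % protein remaining versus DMSO; DC50 from concentration-response fit at half DMSO band intensity.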

For the next test, the target named is T5, IKZF3 (Homo sapiens, UniProt Q96SW2+Q9UKT9).
T5 construct: endogenous in cells; host or cells: human PBMCs (Milecell Biotechnologies)
T5 sequence (Q9UKT9 whole entry): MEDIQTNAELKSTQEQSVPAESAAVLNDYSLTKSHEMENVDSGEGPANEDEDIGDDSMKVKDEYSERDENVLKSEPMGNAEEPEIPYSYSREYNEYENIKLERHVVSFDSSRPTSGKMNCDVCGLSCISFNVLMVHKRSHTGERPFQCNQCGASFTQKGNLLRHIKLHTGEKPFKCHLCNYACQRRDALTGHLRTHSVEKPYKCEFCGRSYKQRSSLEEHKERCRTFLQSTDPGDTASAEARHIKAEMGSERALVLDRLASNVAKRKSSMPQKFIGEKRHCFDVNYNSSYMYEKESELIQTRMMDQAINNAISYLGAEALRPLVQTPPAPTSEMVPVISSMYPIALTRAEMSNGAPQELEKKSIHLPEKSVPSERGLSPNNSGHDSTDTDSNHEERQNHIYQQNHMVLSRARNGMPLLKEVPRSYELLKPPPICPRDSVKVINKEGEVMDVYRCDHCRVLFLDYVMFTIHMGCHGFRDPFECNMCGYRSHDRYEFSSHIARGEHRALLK
T5 sequence (Q96SW2 whole entry): as the sequence (Q96SW2 whole entry) above
T5 sequence (Q16531 whole entry partner): as the sequence (Q16531 whole entry partner) above
In words: Western-blot assay, substrate protein in hPBMCs. In kind it is cell-based. The following applies: hPBMC cells, 24 hours, tested at 50 nM and 500 nM, table does not say which. Summed up: as §4

The next test deals with T6, CK1α (Homo sapiens, UniProt P48729+Q96SW2).
T6 construct: endogenous in cells; host or cells: human PBMCs (Milecell Biotechnologies)
T6 sequence (P48729 whole entry): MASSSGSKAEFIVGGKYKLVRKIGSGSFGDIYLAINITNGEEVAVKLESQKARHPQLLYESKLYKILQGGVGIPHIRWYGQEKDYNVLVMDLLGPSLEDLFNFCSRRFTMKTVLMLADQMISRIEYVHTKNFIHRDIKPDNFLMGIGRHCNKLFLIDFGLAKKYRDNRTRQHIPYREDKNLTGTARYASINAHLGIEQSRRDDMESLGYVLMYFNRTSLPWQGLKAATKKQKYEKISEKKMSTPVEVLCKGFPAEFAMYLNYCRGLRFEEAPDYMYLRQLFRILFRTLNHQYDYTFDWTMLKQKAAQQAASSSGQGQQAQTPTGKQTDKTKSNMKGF
T6 sequence (Q96SW2 whole entry): as the sequence (Q96SW2 whole entry) above
T6 sequence (Q16531 whole entry partner): as the sequence (Q16531 whole entry partner) above
In words: Western-blot assay, substrate protein in hPBMCs. The class given is cell-based. As to conditions: hPBMC cells, 24 hours, tested at 50 nM and 500 nM, table does not say which. Summed up: as §3

A further test deals with T7, Wee1 (Homo sapiens, UniProt P30291+Q96SW2).
T7 construct: endogenous in cells; host or cells: human PBMCs (Milecell Biotechnologies)
T7 sequence (P30291 whole entry): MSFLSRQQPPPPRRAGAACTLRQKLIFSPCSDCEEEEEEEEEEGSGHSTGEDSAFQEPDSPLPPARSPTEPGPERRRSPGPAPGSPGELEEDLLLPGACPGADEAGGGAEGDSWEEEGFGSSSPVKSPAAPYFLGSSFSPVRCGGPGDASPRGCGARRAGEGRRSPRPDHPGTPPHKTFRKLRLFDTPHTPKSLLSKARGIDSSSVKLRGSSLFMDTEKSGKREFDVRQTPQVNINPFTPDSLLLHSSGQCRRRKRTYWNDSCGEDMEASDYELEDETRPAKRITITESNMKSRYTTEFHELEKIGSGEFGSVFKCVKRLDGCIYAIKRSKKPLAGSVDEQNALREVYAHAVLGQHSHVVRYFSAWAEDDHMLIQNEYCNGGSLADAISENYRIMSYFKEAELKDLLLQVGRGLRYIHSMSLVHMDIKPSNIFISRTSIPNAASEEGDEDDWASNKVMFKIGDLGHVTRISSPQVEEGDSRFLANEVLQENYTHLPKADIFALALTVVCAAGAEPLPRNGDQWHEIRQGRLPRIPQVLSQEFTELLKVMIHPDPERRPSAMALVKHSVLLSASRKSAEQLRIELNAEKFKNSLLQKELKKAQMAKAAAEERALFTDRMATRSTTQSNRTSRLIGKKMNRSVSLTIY
T7 sequence (Q96SW2 whole entry): as the sequence (Q96SW2 whole entry) above
T7 sequence (Q16531 whole entry partner): as the sequence (Q16531 whole entry partner) above
In words: Western-blot assay, substrate protein in hPBMCs. In kind it is cell-based. The following applies: hPBMC cells, 24 hours, tested at 50 nM and 500 nM, table does not say which. Summed up: as §3

The subject of a further test is CAL-62. Briefly: Half inhibitory concentration (IC50) against tumor cells, Cell Counting Kit-8. In kind it is cell-based. As to conditions: Homo sapiens, CCK-8, 96 h treatment, read-out: inhibitory activity (IC50, nM) against tumor cells proliferation. As to the method: as §1, §2
A further test deals with CCRF-CEM. Described as above. In kind it is cell-based. The following applies: Homo sapiens, CCK-8, 96 h treatment, read-out: inhibitory activity (IC50, nM) against tumor cells proliferation. As to the method: as §1, §2
For the next test, the system named is MV-4-11. The description is as above. The class given is cell-based. The following applies: Homo sapiens, MV4-11, CCK-8, 96 h treatment, read-out: inhibitory activity (IC50, nM) against tumor cells proliferation. As to the method:
as §1, §2

Another test has as its system Kasumi-1. Described as above. In kind it is cell-based. As to conditions: Homo sapiens, CCK-8, 96 h treatment, read-out: inhibitory activity (IC50, nM) against tumor cells proliferation. Here is the method: as §1, §2

As a reminder, the pIC50 is the IC50 on a negative log10 scale, so that one unit is a factor of ten. For `CC1(C)CCC(CN2CCC(Sc3ccc4c(c3)CN(C3CCC(=O)NC3=O)C4=O)C2)=C(c2ccc(Cl)cc2)C1` (stereo not drawn) [GT-04245, 3-(5-((1-((4′-chloro-5,5-dimethyl-3,4,5,6-tetrahydro-[1,1′-biphenyl]-2-yl)methyl)pyrrolidin-3-yl)thio)-1-oxoisoindolin-2-yl)piperidine-2,6-dione], the IC50 in the test with THP-1 fell in the range of 500 to 1000 nM. For the same compound, the pIC50 in test [1] was > 6.30. For the same compound, the “substrate protein remaining %” value at IKZF2 and on GSPT1 was “A (0%≤ substrate protein remaining % ≤80%)” in each case.

Consider `O=C1CCC(N2Cc3cc(SC4CCN(C(=O)c5ccccc5-c5ccc(Cl)cc5)CC4)ccc3C2=O)C(=O)N1` (stereo not drawn) [GT-06182, 3-(5-((1-(4′-chloro-[1,1′-biphenyl]-2-carbonyl)piperidin-4-yl)thio)-1-oxoisoindolin-2-yl)piperidine-2,6-dione], for which, in the test on MM.1S, the IC50 lay in the range of 10 to 50 nM. Also, in test [1], the negative-log IC50 (pIC50) was > 6.30. Besides, the “substrate protein remaining %” value on IKZF1, on IKZF3, at CK1α, at Wee1 and at GSPT1 was “A (0%≤ substrate protein remaining % ≤80%)” each time.

`CC1(C)CCC(CN2CCC(Sc3ccc4c(c3)CN(C3CCC(=O)NC3=O)C4=O)CC2)=C(c2ccc(Cl)cc2)C1` (stereo not drawn) [GT-03462, 3-(5-((1-((4′-chloro-5,5-dimethyl-3,4,5,6-tetrahydro-[1,1′-biphenyl]-2-yl)methyl)piperidin-4-yl)thio)-1-oxoisoindolin-2-yl)piperidine-2,6-dione]: the IC50 with CAL-62 was 100 to 500 nM; in the test with CCRF-CEM, 500 to 1000 nM. For the same compound, in test [1], the pIC50 is 6.00 to 6.30. For the same compound, the “substrate protein remaining %” value on Wee1 and on GSPT1 was “A (0%≤ substrate protein remaining % ≤80%)” throughout.

For `O=C1CCC(N2Cc3cc(SC4CCN(Cc5ccccc5-c5ccc(Cl)cc5)CC4(F)F)ccc3C2=O)C(=O)N1` (stereo not drawn) [GT-06924, 3-(5-((1-((4′-chloro-[1,1′-biphenyl]-2-yl)methyl)-3,3-difluoropiperidin-4-yl)thio)-1-oxoisoindolin-2-yl)piperidine-2,6-dione], the values for the IC50 in the test on CCRF-CEM and in the test on MV-4-11 were 500 to 1000 nM and 100 to 500 nM, respectively. Besides, the “substrate protein remaining %” value at IKZF1, on CK1α and at GSPT1 was “A (0%≤ substrate protein remaining % ≤80%)” each time.

`O=C1CCC(N2Cc3cc(OC4CCN(C(=O)c5ccccc5-c5ccc(Cl)cc5)CC4)ccc3C2=O)C(=O)N1` (stereo not drawn) [GT-06204, 3-(5-((1-(4′-chloro-[1,1′-biphenyl]-2-carbonyl)piperidin-4-yl)oxy)-1-oxoisoindolin-2-yl)piperidine-2,6-dione]: the IC50 with MM.1S is 10 to 50 nM. In test [1], the pIC50 was > 6.30. The “substrate protein remaining %” value at IKZF3, at CK1α, at IKZF2 and at GSPT1 was “A (0%≤ substrate protein remaining % ≤80%)” in each case.

Take `CC1(C)CCC(CN2CCC3(CC2)CC(Sc2ccc4c(c2)CN(C2CCC(=O)NC2=O)C4=O)C3)=C(c2ccc(Cl)cc2)C1` (stereo not drawn) [GT-06873, 3-(5-((7-((4′-chloro-5,5-dimethyl-3,4,5,6-tetrahydro-[1,1′-biphenyl]-2-yl)methyl)-7-azaspiro[3.5]nonan-2-yl)thio)-1-oxoisoindolin-2-yl)piperidine-2,6-dione]: the IC50 in the test with MV-4-11 is 10 to 50 nM. In addition, in test [1], the pIC50 was 5.72 to 6.00. Also, the “substrate protein remaining %” value at IKZF1, on IKZF3, on CK1α, on IKZF2, at Wee1 and at GSPT1 was “A (0%≤ substrate protein remaining % ≤80%)” throughout.

For `O=C1CCC(N2Cc3cc(SC4CCN(C(c5ccccc5)c5ccccc5)CC4(F)F)ccc3C2=O)C(=O)N1` (stereo not drawn) [GT-06926, 3-(5-((1-benzhydryl-3,3-difluoropiperidin-4-yl)thio)-1-oxoisoindolin-2-yl)piperidine-2,6-dione], the IC50 fell in the range of 50 to 100 nM with CCRF-CEM, 100 to 500 nM with Kasumi-1 and 10 to 50 nM in the test on MV-4-11. In test [1], this compound had a pIC50 of 5.72 to 6.00. For the same compound, the “substrate protein remaining %” value at IKZF1, on IKZF3, at CK1α, at IKZF2, at Wee1 and at GSPT1 was “A (0%≤ substrate protein remaining % ≤80%)” in each case.

As to `O=C1CCC(N2Cc3cc(SC4CCN(C(=O)c5ccccc5-c5ccc(Cl)cc5)CC4(F)F)ccc3C2=O)C(=O)N1` (stereo not drawn) [GT-06925, 3-(5-((1-(4′-chloro-[1,1′-biphenyl]-2-carbonyl)-3,3-difluoropiperidin-4-yl)thio)-1-oxoisoindolin-2-yl)piperidine-2,6-dione], the IC50 with MV-4-11 was 1 to 10 nM. The compound further had a pIC50 in test [1] of 6.00 to 6.30. Moreover, the “substrate protein remaining %” value on IKZF1, on IKZF3, on CK1α, at IKZF2, at Wee1 and on GSPT1 was “A (0%≤ substrate protein remaining % ≤80%)” throughout.

For the compound `O=C1CCC(N2Cc3cc(SC4CN(C(c5ccccc5F)c5ccccc5F)C4)ccc3C2=O)C(=O)N1` (stereo not drawn) [GT-06758, 3-(5-((1-(bis(2-fluorophenyl)methyl)azetidin-3-yl)thio)-1-oxoisoindolin-2-yl)piperidine-2,6-dione], the IC50 with CCRF-CEM fell in the range of 50 to 100 nM; in the test on Kasumi-1, 100 to 500 nM; with MV-4-11, 50 to 100 nM. Moreover, in test [1], the pIC50 was > 6.30. Also, the “substrate protein remaining %” value on IKZF1, at IKZF2 and at GSPT1 was “A (0%≤ substrate protein remaining % ≤80%)” in each case.

Take `O=C1CCC(N2Cc3cc(SC4CN(C(=O)c5ccccc5-c5ccc(Cl)cc5)C4)ccc3C2=O)C(=O)N1` (stereo not drawn) [GT-03892, 3-(5-((1-(4′-chloro-[1,1′-biphenyl]-2-carbonyl)azetidin-3-yl)thio)-1-oxoisoindolin-2-yl)piperidine-2,6-dione]: the IC50 in the test on CAL-62 lay within 10 to 50 nM; in the test on THP-1 it was 100 to 500 nM; in the test on CCRF-CEM it was 10 to 50 nM. Further, in [1], the negative logarithm of the IC50 (pIC50) is > 6.30. Also, the “substrate protein remaining %” value on IKZF1, at IKZF3, on IKZF2, on Wee1 and at GSPT1 was “A (0%≤ substrate protein remaining % ≤80%)” in each case.
